In patent US20210283099A1, “CDC7 KINASE INHIBITORS AND USES THEREOF” (SLOAN-KETTERING INSTITUTE FOR CANCER RESEARCH, priority 2010, published 2021):
Like-named read-outs stand apart in the source and are kept apart here.

Columns and labels:
A549 = experiment: Cytotoxicity assay (Alamar blue); type: cell-based; conditions: Human lung adenocarcinoma, G12S KRAS mutation
Experimental: (§1) FIGS. 16A-16B. Granaticin A and Granaticin B inhibit multiple tumor types: The indicated cell lines and primary patient samples were tested against the compounds listed in standard cytotoxicity assays (12 point dose response using Alamar blue reduction as an indicator of cell viability). Assays were done in triplicate and IC50 determinations were run in 12-point serial dilutions from […] to 5 nM. […] These include ras and EGFR gatekeeper mutation containing cell lines in addition to p53 mutant cell lines and other known chemotherapy resistant cell lines. Specifically, this included multi-drug resistance phenotype (MDR-overexpressing) cell lines from multiple hematologic and solid tumor cell lines. Table 1 highlights a series of primary patient leukemia samples-both acute and chronic and treatment naïve and refractory tested against granaticins A and B and Derivatives 1 and 2 (see Examples).

ALL3 = experiment: Cytotoxicity assay (Alamar blue); type: cell-based; conditions: Human Acute Lymphoblastic leukemia, Philadelphia chromosome positive
Experimental: as §1

BE(2)C = experiment: Cytotoxicity assay (Alamar blue); type: cell-based; conditions: human neuroblastoma, p53 mutant
Experimental: as §1

H2122 = experiment: Cytotoxicity assay (Alamar blue); type: cell-based; conditions: NCI-H2122, human lung adenocarcinoma, G12C KRAS mutation, Q16L and C176F P53 mutations
Experimental: as §1

H23 = experiment: Cytotoxicity assay (Alamar blue); type: cell-based; conditions: NCI-H23, Human lung adenocarcinoma, G12c KRAS mutation, M246I P53 mutation
Experimental: as §1

H2444 = experiment: Cytotoxicity assay (Alamar blue); type: cell-based; conditions: NCI-H2444, human lung adenocarcinoma, G12V KRAS mutation
Experimental: as §1

H3255 = experiment: Cytotoxicity assay (Alamar blue); type: cell-based; conditions: NCI-H3255, Human lung adenocarcinoma, L858R EGFR mutation, wild-type KRAS, wild-type P53
Experimental: as §1

H460 = experiment: Cytotoxicity assay (Alamar blue); type: cell-based; conditions: NCI-H460, human large cell lung carcinoma, Q61H KRAS mutation
Experimental: as §1

HCC827 = experiment: Cytotoxicity assay (Alamar blue); type: cell-based; conditions: human lung adenocarcinoma, DelE746-A750 EGFR mutation
Experimental: as §1

HELA N10 = experiment: Cytotoxicity assay (Alamar blue); type: cell-based; conditions: human cervical adenocarcinoma (positive for human papillomavirus infection)
Experimental: as §1

HL60 MX1 = experiment: Cytotoxicity assay (Alamar blue); type: cell-based; conditions: Homo sapiens, MDR variant of HL60 selected with mitoxantrone-clone 1
Experimental: as §1

HL60 MX2 = experiment: Cytotoxicity assay (Alamar blue); type: cell-based; conditions: Homo sapiens, MDR variant of HL60 selected with mitoxantrone-clone 2
Experimental: as §1

HTB15 = experiment: Cytotoxicity assay (Alamar blue); type: cell-based; conditions: Human Glioblastoma (U-118MG)
Experimental: as §1

JAKL = experiment: Cytotoxicity assay (Alamar blue); type: cell-based; conditions: Homo sapiens, Patient sample of CLL with trisomy of chromosome 12 and unmutated Ig heavy chain locus
Experimental: as §1

JOQU = experiment: Cytotoxicity assay (Alamar blue); type: cell-based; conditions: Homo sapiens, Patient sample of relapsed/refractory AML with trisomy of chromosome #8 and Flt-3 ITD
Experimental: as §1

JUCO = experiment: Cytotoxicity assay (Alamar blue); type: cell-based; conditions: Homo sapiens, Patient sample of pre-B cell ALL with t(4;11) involving the MLL gene
Experimental: as §1

JURKAT E61 = experiment: Cytotoxicity assay (Alamar blue); type: cell-based; conditions: Jurkat E6.1, Human Acute Lymphoblastic T-cell leukemia
Experimental: as §1

MAWI B = experiment: Cytotoxicity assay (Alamar blue); type: cell-based; conditions: Homo sapiens, Patient sample of secondary chronic myelogenous leukemia
Experimental: as §1

MEG01 = experiment: Cytotoxicity assay (Alamar blue); type: cell-based; conditions: MEG-01, Human CML transformed to acute Megakaryoblastic leukemia
Experimental: as §1

OVCAR3 = experiment: Cytotoxicity assay (Alamar blue); type: cell-based; conditions: OVCAR-3, human ovarian adenocarcinoma
Experimental: as §1

RADO = experiment: Cytotoxicity assay (Alamar blue); type: cell-based; conditions: Homo sapiens, Patient sample of primary refractory AML with multiple chromosomal abnormalities (−5, −7)
Experimental: as §1

RH30 = experiment: Cytotoxicity assay (Alamar blue); type: cell-based; conditions: Human rhabdomyosarcoma, P53 mutation
Experimental: as §1

SKOV3 = experiment: Cytotoxicity assay (Alamar blue); type: cell-based; conditions: SK-OV-3, Human adenocarcinoma from the ovary derived from ascites, hypodiploid
Experimental: as §1

SOPA = experiment: Cytotoxicity assay (Alamar blue); type: cell-based; conditions: Homo sapiens, Patient sample of secondary AML with chromsome 11q23 abnormality
Experimental: as §1

SW1736 = experiment: Cytotoxicity assay (Alamar blue); type: cell-based; conditions: SW-1736, Human anaplastic thyroid carcinoma with BRAF V600E mutation
Experimental: as §1

HeLa S3 cells = experiment: Double thymidine block and release, FACS and morphology; type: cell-based, human; conditions: for morphologic appearance: 15 hours release from double thymidine block; for cell cycle progression by FACS: cells synchronized at the G1/S transition and released into compound
Experimental: FIG. 9. […] Synchronized cells (time zero) were released into media containing granaticin A for the indicated times and standard FACS analysis performed looking at DNA content.
FIG. 11. Cell cycle arrest in Hela S3 cells: Morphologic appearance of control (DMSO), granaticin A, and granaticin B treated HeLa S3 cells following 15 hours release from double thymidine block. […] The corresponding FACS profiles are shown.

[1] = system: RPE (retinal pigment epithelial cells); experiment: FACS and caspase-3 assay in normal diploid cells; type: cell-based
Experimental: (§2) FIGS. 23A-23C. Granaticin A and B are not cytotoxic to normal diploid cells: FIGS. 23A-23B: Granaticin B exposure is not cytotoxic to normal diploid cells. Either HeLa or RPE (retinal pigment epithelial cells, a normal human diploid cell line) cells were incubated in carrier control (DMSO) or granaticin B (1 microM) for 24 hours and samples were subjected to standard FACS analysis with the x-axis indicating DNA content (FIG. 23A). […] FIG. 23C: Granaticin A exposure is not cytotoxic to normal diploid cells. Either HeLa or RPE (retinal pigment epithelial cells, a normal diploid cell line) cells were incubated in carrier control (DMSO) or granaticin A for 24 hours and samples were subjected to standard FACS analysis with FL2 indicating DNA content.

HeLa = experiment: FACS and caspase-3 assay in HeLa cells; type: cell-based, human; conditions: for cell cycle profile: 24 hours (granaticin B 1 microM)
Experimental: as §2

| Structure (SMILES) | IC50 (A549) | IC50 (ALL3) | IC50 (BE(2)C) | IC50 (H2122) | IC50 (H23) | IC50 (H2444) | IC50 (H3255) | IC50 (H460) | IC50 (HCC827) | IC50 (HELA N10) | IC50 (HL60 MX1) | IC50 (HL60 MX2) | IC50 (HTB15) | IC50 (JAKL) | IC50 (JOQU) | IC50 (JUCO) | IC50 (JURKAT E61) | IC50 (MAWI B) | IC50 (MEG01) | IC50 (OVCAR3) | other results |
| --- | --- | --- | --- | --- | --- | --- | --- | --- | --- | --- | --- | --- | --- | --- | --- | --- | --- | --- | --- | --- | --- |
| CC1OC2CC(O)C1(O)c1c(O)c3c(c(O)c12)C(=O)C1=C(C3=O)[C@H](C)O[C@H]2CC(=O)O[C@@H]12 (stereo partly drawn) [Granaticin A, granaticin A] | 280 nM | 140 nM | 70 nM | 1190 nM | 120 nM | 310 nM | 210 nM | 390 nM | 280 nM | 1270 nM | 170 nM | 110 nM | 650 nM | 50 nM | 770 nM | 80 nM | 50 nM | 420 nM | 170 nM | 210 nM | IC50 (RADO): 60 nM; IC50 (RH30): 130 nM; IC50 (SKOV3): 120 nM; IC50 (SOPA): 100 nM; IC50 (SW1736): 160 nM; morphologic appearance (HeLa S3 cells): arrested with flattened morphology and peri-nuclear vacuolization; cell cycle progression by FACS (HeLa S3 cells): S phase progression is also blocked; cell cycle profile [1]: unaffected; cell cycle profile (HeLa): apoptotic cell death |
| CC1OC2CC(O[C@H]3CC[C@H](O)[C@H](C)O3)C1(O)c1c(O)c3c(c(O)c12)C(=O)C1=C(C3=O)[C@H](C)O[C@H]2CC(=O)O[C@@H]12 (stereo partly drawn) [Granaticin B, granaticin B] | 90 nM | 30 nM | 40 nM | 210 nM | 50 nM | 30 nM | 70 nM | 80 nM | 120 nM | 970 nM | 80 nM | 70 nM | 460 nM | 10 nM | 140 nM | 10 nM | 20 nM | 160 nM | 80 nM | 110 nM | IC50 (RADO): 30 nM; IC50 (RH30): 80 nM; IC50 (SKOV3): 40 nM; IC50 (SOPA): 90 nM; IC50 (SW1736): 20 nM; morphologic appearance (HeLa S3 cells): nuclear blebbing and cell death; cell cycle progression by FACS (HeLa S3 cells): Induces Cell Cycle Arrest; caspase-3 activation ([1]; RPE cells, 1 microM): does not result in caspase-3 activation; cell cycle profile ([1]; RPE cells, 24 hours (granaticin B 1 microM)): essentially unaffected; caspase-3 activation (HeLa; 1 microM): only activated in HeLa cells; cell cycle profile (HeLa): apoptotic cell death |
